Data taken from patent US20050159594A1, “Eplerenone crystal form exhibiting enhanced dissolution rate” (Pharmacia Corporation, priority 1995, published 2005).
Values after ≈ are worked out from the molar mass of the structure shown.

Assays:
Assay type in all cases: physicochemical
[1] = Intrinsic dissolution rate of eplerenone polymorph samples
Method: Intrinsic dissolution rates were measured for the following four eplerenone polymorph samples: (i) Form L eplerenone prepared by direct crystallization from acetonitrile using water as an anti-solvent in the same manner as in Example 11, Procedure B; (ii) Form H eplerenone prepared by digestion in ethanol in the same manner as in Example 10, Procedure A, (iii) a mixture of 5% Form H and 95% Form L; and (iv) Form L eplerenone that was micronized to provide the following particle size distribution: 10% by weight of the particles under 9 μm, 50% by weight of the particles under 22 μm, and 90% by weight of the particles under 41 μm.
Eplerenone in an amount of 150 mg was weighed and placed into a VanKel intrinsic dissolution cavity. The powder was compressed at 8280 kPa using a Carver press to form tablets. The sample was then mounted on the intrinsic dissolution apparatus. The dissolution medium used was 1% sodium dodecyl sulfate (SDS) in HPLC water. All tests were conducted at 37° C. for 2 hours. […] Samples were drawn at determined intervals for the determination of rate of dissolution. […] The samples were analyzed by UV absorbance detection at 243 nm. Intrinsic dissolution rates were calculated from the slope of the linear portion of the concentration versus time profiles corrected for volume and normalized for the surface area of the dissolution tablet (0.5 cm^2).

[2] = Slurry conversion / thermodynamic stability of Form H versus Form L
Method: Approximately 150 mg of Form L eplerenone and 150 mg of Form H eplerenone were added to 5 ml ethyl acetate. The resulting slurry was magnetically stirred at 300 rpm overnight. The next day a sample of the resulting solid was collected by filtration.

[3] = Aqueous solubility of Form L eplerenone; details: for solubility: phosphate buffer, pH 7, aqueous, pH 7 (100 mM phosphate buffer)
Method: The aqueous solubility of Form L eplerenone was measured at pH 7 (100 mM phosphate buffer) at 5, 25 and 40° C. Approximately 30 mg of Form L eplerenone was mixed with approximately 10 ml of buffer to form a slurry of eplerenone at both 5 and 25° C. Approximately 40 mg of […] eplerenone was mixed with approximately 10 ml of buffer to form a slurry of eplerenone at 40° C. Samples were prepared in duplicate for each condition. The slurries were allowed to equilibrate in water shaker baths at the appropriate temperature and the solutions were analyzed for eplerenone content by ultraviolet visible analysis (245 nm) at time intervals of 1, 5, 12, 19, 27 and 36 days. Data from each temperature were appropriately averaged to determine the solubility of eplerenone at each temperature and are reported in Table 8.

Dissolution rate relative to Form L eplerenone (faster by) ([1]; aqueous medium, temperatures below the enantiotropic transition temperature)	Solid form after slurry conversion (XRPD) ([2]; 150 mg Form L + 150 mg Form H in 5 ml ethyl acetate, stirred overnight)	Solid form of residual solids after equilibration (DSC, TGA) ([3]; aqueous slurry pH 7, end of the 36 day equilibration)	solubility ([3]; 5 °C)	solubility ([3]; 25 °C)	solubility ([3]; 40 °C)	Compound	Intrinsic dissolution rate, comparison in words ([1]; 1% SDS in HPLC water, 37 °C, 2 hours, compressed tablet 0.5 cm^2)	Thermodynamic stability, comparison of polymorphs ([2]; ambient temperatures)
approximately 30%	entirely composed of Form L eplerenone	–	–	–	–	COC(=O)[C@@H]1CC2=CC(=O)CC[C@]2(C)[C@@]23O[C@@H]2C[C@@]2(C)C(CC[C@@]24CCC(=O)O4)C13 (some centres unmarked) [Form H eplerenone, methyl hydrogen 9,11-epoxy-17-hydroxy-3-oxopregn-4-ene-7,21-dicarboxylate, γ-lactone]	faster intrinsic dissolution rate than Form L eplerenone	–
–	–	determined to be Form L eplerenone	240 µg/mL (≈ 579 µM)	290 µg/mL (≈ 700 µM)	390 µg/mL (≈ 941 µM)	COC(=O)[C@@H]1CC2=CC(=O)CC[C@]2(C)[C@@]23O[C@@H]2C[C@@]2(C)C(CC[C@@]24CCC(=O)O4)C13 (some centres unmarked) [Form L eplerenone, methyl hydrogen 9,11-epoxy-17-hydroxy-3-oxopregn-4-ene-7,21-dicarboxylate, γ-lactone]	–	more thermodynamically stable than Form H at ambient temperatures
